Measurements: a melting point compilation (Tetko et al.; mined from patent text by program, amines drawn as free bases though some values may be those of a salt)

SMILES	melting point
CC(C)CSc1nc2c(cc1C#N)C(=O)CC(C)(C)C2	75 to 76 °C
CC(C)C1COCc2nc3c(N)nc4cc(OCCN5CCOCC5)ccc4c3n21 (stereo not drawn)	194 to 195 °C
Cc1cccnc1-c1cc2cccnc2c(Cl)n1	130 to 131 °C
C=CCC(CC=C)(CC=C)C(=O)O[C@H]1C[C@H](O)C=C2C=C[C@H](C)[C@H](CC[C@@H]3C[C@@H](O)CC(=O)O3)[C@H]21	118 to 119 °C
CCCNC(=O)C(C)=Cc1ccc2[nH]ccc2c1	92 to 94 °C
COc1cc(N)c2cc[nH]c2c1	83 to 86 °C
COc1cc(OC)n2sc(=NS(=O)(=O)Cc3ccccc3OC(F)F)nc2n1	151 to 152 °C
COCCOc1c(C)cc(C#CC2(O)CN3CCC2CC3)cc1C (stereo not drawn)	120 °C
N#CCc1ccccc1Sc1ccc(Cl)c(C(F)(F)F)c1	69 to 70 °C
CN(C)C=CC(=O)c1cccc(Cl)c1	68 to 70 °C
Cc1ccc(Oc2cncc3sc(C(N)=O)cc23)cc1	196 to 197 °C
CCCCCCCCCCCCCCCCCCC(CC1(C)OCCO1)C(=O)OCC (stereo not drawn)	33 to 34 °C
COC(=O)C1=C(C)NC(C)=C(C(=O)OCOC(=O)C(C)C)C1c1cccc(Cl)c1Cl (stereo not drawn)	145 °C
CCc1ccc2c(n1)C(C(N)=S)CCC2 (stereo not drawn)	73 to 75 °C
CC1(c2ccc3c(c2)CC(=O)N3CC(F)(F)F)OCCO1	87 to 89 °C
Cc1ccc(Cl)nc1N1CCCNC1=C[N+](=O)[O-]	176 to 183 °C
COc1ccc(S(=O)(=O)Nc2onc(C)c2Br)cc1OC	136 to 138 °C
CCCc1nc2c(N)nc3cccnc3c2n1C1(OC)CCCCC1	187 to 188 °C
COc1ccc2c(c1)CC(=O)c1sccc1C2=C1CCN(C)CC1	157 to 158 °C
Cc1c(C(N)=O)nnn1Cc1c(F)cccc1F	208 to 210 °C
CSCOC1CCC2C3CCC4=CC(=O)C=CC4(C)C3(F)C(O)CC12C (stereo not drawn)	224 to 225 °C

SMILES	melting point
CS(=O)(=O)c1ccc(-n2nc(C(F)(F)F)cc2-c2ccc(-c3ccco3)cc2F)cc1F	156 to 160 °C
Cc1cc2c(N)c([N+](=O)[O-])cnc2s1	238 to 240 °C
Cc1noc(-c2cn(-c3cccc(Br)c3)cn2)n1	200 to 202 °C
COc1c(C)cc2c(c1C)C[C@@H]1c3ccccc3N[C@H]21 (relative stereo)	117 °C
O=[N+]([O-])c1ccccc1Sc1ncc[nH]1	137 to 138 °C
COc1cc(OC)nc(Oc2c(Cl)cccc2C(=O)O)n1	151 to 152 °C
COc1cc(-c2nc(-n3c(C)ccc3C)sc2SCC2CCCC2)c(OC)cc1C	108 °C
COc1cc(C(=O)Cc2nnnn2C)c(N)cc1Cl	178 to 181 °C
N=c1[nH]c2ccc(Cl)cc2c2ncnn12	279 to 280 °C
Cc1ccc(C23CN(C)CC2CC32SCCS2)cc1 (stereo not drawn)	81 to 86 °C
CCCN(CCC)CCc1ccc(OC)c2[nH]c(=O)[nH]c12	35 °C
Cn1cc2c(n1)Nc1ccc(Cl)cc1NC2=S	> 260 °C
COc1cc2c(cc1C)OC1(CC2(C)C)CC(C)(C)c2cc(OCC(=O)O)c(C)cc2O1 (stereo not drawn)	195 to 197 °C
CCOC(=O)C1=Nc2cc3c(c(C)c2=C1C)N=c1ccc(C#N)cc1=3	> 240 °C
COC(=O)c1nc(-c2ccc([Si](C)(C)C)cc2F)c(F)c(N)c1OC	127 to 129 °C
Nc1c(C(=O)c2cc(Cl)ccn2)[nH]c2cc(Cl)ccc12	234 to 235 °C
CC(C)(C)CC(=O)c1ccc2c(c1)C=C(C(=O)O)C(C(F)(F)F)O2 (stereo not drawn)	198 to 200 °C
CCc1nn(C2CCCC2)c2cc(C(=O)N(C)c3c(Cl)cncc3Cl)ccc12	118 to 119 °C
Cc1noc(-c2ncn3c2[C@@H]2CCCN2C(=O)c2c(Br)cccc2-3)n1	237 to 238 °C
CCOC(=O)COC(=O)c1cc(S(N)(=O)=O)c(Cl)cc1NCc1ccco1	46 °C
COC(=O)CCCCCc1c(OC)cc(C(C)(C)C)c(O)c1NC(=O)NNC(=O)Nc1cc(OC)cc(C(C)(C)C)c1O	157 to 159 °C

Other lines, results leading:

melting point	SMILES
67 to 76 °C	COCCN(C)S(=O)(=O)c1ccccc1Nc1nc(Nc2cc3c(cc2OC)CCN(CC(=O)N(C)C)CC3)ncc1Cl
206 to 208 °C	O=C(O)c1ccc(NCc2ccc(Cl)cc2)cc1
94.5 to 96 °C	CC(O)(C#Cc1ccc(C(=O)c2ccccc2)cc1)C(F)(F)F (stereo not drawn)
152 to 153 °C	CC(=O)c1c(C)nc(N(Cc2ccccc2)Cc2ccccc2)c(N)c1NCCc1ccccc1
185 to 186 °C	O=C1NCCc2ccc(OCCCCN3CCN(c4cccc5c4CCCC5)CC3)nc2N1
230 to 233 °C	Cc1c(N2CC[C@@H](C3(N)CC3)C2)ccc2c(=O)c(C(=O)O)cn(C3CC3)c12
108 to 109 °C	CN(C)Cc1cc(Cl)ccc1OCCN(C)Cc1ccc(C(N)=O)cc1
> 245 °C	CN1CCN(Cc2ccc(-c3cc4c(Nc5cccc6[nH]ccc56)c(C#N)cnc4s3)cc2)CC1
187 to 189 °C	Cc1nc(N)oc1-c1cccc2ccccc12
77 to 78 °C	CC(C)c1cccc(-c2ccc(F)cc2)c1OCCO
106 °C	CCN(CC)C(=O)OCC1CN(C(=S)c2cc(OC)c(OC)c(OC)c2)CCN1C(=O)c1cc(OC)c(OC)c(OC)c1 (stereo not drawn)
88 to 90 °C	COC(=O)COC(=O)COc1ccc([N+](=O)[O-])cc1
103 to 105 °C	Clc1nc(N2CCOCC2)c2ccccc2n1
114 to 118 °C	COc1cccc(OC)c1C(=O)Nc1ccc(OCCN2CCCCC2)cc1
179 to 181 °C	CN(C)c1cc(CC(C#N)CNc2ccccc2)cc(N(C)C)c1N(C)C (stereo not drawn)
118 to 126 °C	CC(C)C[C@H](NC(=O)[C@@H](N)Cc1c[nH]cn1)[C@@H](O)c1nccs1
51 to 52 °C	O=C(NCCc1ccc(F)cc1)OCc1ccccc1
231 to 233 °C	O=c1[nH]c2ccc(CCCCN3CCN(c4cccc5ccccc45)CC3)cc2o1
162 to 164 °C	CC(C)(C)OC(=O)NCc1cc(N=C(N)c2cccs2)ccc1N1CCN(C(=O)CCCCC2CCSS2)CC1 (stereo not drawn)

melting point	SMILES
64 to 67 °C	COCCNc1nc(C)c(C)c(N2CCc3ccccc3C2C)n1 (stereo not drawn)
228 to 230 °C	CNC(=O)Cn1c(-c2ccccn2)nc2cccnc21
125 to 126 °C	CCOC(=O)C1=NN(c2cccc(Cl)c2)C(c2ccccc2)CC1 (stereo not drawn)
228 to 230 °C	CC(=O)c1ccc(Nc2cccc(-c3cnc(N)nc3)c2)c(N)c1
85 to 87 °C	CC(=O)NCCC1CCc2ccc3nc(CCc4ccccc4)oc3c21 (stereo not drawn)
130 to 131 °C	O=C1CCc2ccc(OCCCN3CCCN(c4cccc(Cl)c4Cl)CC3)cc2N1
202 to 204 °C	CN(C1CCN(Cc2ccccn2)CC1)S(=O)(=O)c1ccc(Nc2nccc(Nc3ccc(F)cc3)n2)cc1
117 to 118 °C	C=C(c1ccc(I)cc1)C(O)(Cn1cncn1)c1ccccc1F (stereo not drawn)
68 to 69 °C	C=CCOc1ccccc1-c1ccc(C#N)cc1
198 to 200 °C	O=C(O)Cc1ccc(NC(=O)C(COc2ccccc2Cl)NS(=O)(=O)c2ccc(I)cc2)cc1 (racemic)
190 to 195 °C	COc1cc(C=Cc2nc3c(c(=O)n(C)c(=O)n3C)n2C)cc(OC)c1OCc1ccccc1
183 to 185 °C	NC(=O)CNC(=O)c1ccccc1I
176 to 178 °C	Nc1ccccc1S(=O)c1nc2cc(Cl)ccc2[nH]1 (stereo not drawn)
211 to 213 °C	COc1cn(-c2cc(F)c(Br)cc2F)nc(-c2ccnn2-c2ccccc2)c1=O
86 to 91 °C	COc1cc(OCc2ccccc2)ccc1/C=C/c1cc(/C=C/c2ccc3cc[nH]c3c2)[nH]n1
142 to 145 °C	CNC(=O)OCCN1C(=O)c2ccccc2C1=O
178 °C	CC(C)(Cc1c(Cc2ccccc2)c2cc(OCc3ccc4ccccc4n3)ccc2n1Cc1ccc(Cl)cc1)C(=O)O
90 to 105 °C	O=C(c1cnc2ccccc2n1)N1CC2CC2(c2ccc(Cl)cc2)C1 (stereo not drawn)
297 to 299 °C	CCCCc1ncc(/C=C2\C(=O)NC(=O)N2Cc2cccs2)n1Cc1ccc(C(=O)O)cc1

melting point	SMILES
51 to 52 °C	C[Si](C)(CCCSCCCNC(=O)n1cc(F)c(=O)[nH]c1=O)c1ccccc1
192 to 195 °C	O=C(O)CCCc1cc2nc(Cl)ccc2n1S(=O)(=O)c1c(F)cccc1F
140 °C	O=C(NCc1ccccc1-c1ccccc1C(=O)NCCc1ccccn1)OCc1ccccc1
70 to 74 °C	CCOP(=O)(OCC)C1=C(C(=O)OC(c2ccccc2)c2ccccc2)N2C(=O)C(NC(=O)COc3ccccc3)C2CC1 (stereo not drawn)
98 to 99.5 °C	C[C@@H](Oc1ccc(-c2ccccc2)cc1)[C@H](O)CCc1cccnc1
138 to 142 °C	Cc1cccc2c1C(=O)C(CO)(CO)CS2
79 to 80 °C	CC(C)C[C@H](NC(=O)OCC1c2ccccc2-c2ccccc21)C(=O)N[C@H]1CCOC1OCc1ccc2ccccc2c1 (stereo partly drawn)
180 °C	N#CCON=C(C(=O)O)c1csc(NC(c2ccccc2)(c2ccccc2)c2ccccc2)n1
276 to 282 °C	CNS(=O)(=O)c1ccccc1Nc1nc(Nc2ccc3c(c2)CCCC(=O)N3)ncc1Cl
98 to 102 °C	O=C(c1ccc(F)cc1)C1CCN(CC2CSc3ccc(F)cc3C2)CC1 (stereo not drawn)
225 to 227 °C	COc1ccccc1NC(=O)Nc1nc(Nc2ccccc2-c2ccccc2)nc(N(CCC(=O)O)CCc2ccccn2)n1
197 to 198 °C	CC(C)(C)OC(=O)Nc1ccc(C(=O)O)cc1C(F)(F)F
69 to 70 °C	N#CC(NCCCO)c1ccc(F)cc1 (stereo not drawn)
119 to 126 °C	Cc1ccc(S(=O)(=O)NC2(S(=O)(=O)n3ccc(/C=C/C(=O)NO)c3)C=CC(c3ccccc3)=CC2)cc1 (stereo not drawn)
172 to 174 °C	O=C(O)CCC(=O)c1ccc(-c2ccc(C(F)(F)F)cc2)cc1
145 to 146 °C	CNC(=O)C1CCc2c(C(=O)c3ccccc3)cccc21 (stereo not drawn)
95 to 97 °C	O=C(NC(CO)C(=O)N1CCN(CCCc2ccccc2)CC1)OCc1ccccc1 (stereo not drawn)
> 260 °C	CCCS(=O)(=O)Nc1ccc(-c2ccc(C(=O)O)c(=O)[nH]2)cc1
